pIC50: −log10 of the molar value. Read-outs that look alike come from different tables or passages of the source. Starred links: 1 amine or outer side, 2 acyl side, 3 side chain; linkers in the order of their positions; H or OH if unused. Positions of bridges follow the written chain, without caps; N, C: chain ends. Non-standard residues stand in square brackets, D forms with d. Residues, ends and D or L forms follow the SMILES beside them. ξ: configuration not given here. *: point of attachment. Bip(4'-NHBz) = N[C@@H](Cc1ccc(-c2ccc(NC(=O)c3ccccc3)cc2)cc1)C(=O)O; dArg(ω-(2S)-2,3-diOHpropyl) = N=C(NCCC[C@@H](N)C(=O)O)NC[C@H](O)CO; Bip(4'-NH) = O=C([C@H](Cc1ccc(-c2ccc(N[*:3])cc2)cc1)N[*:1])[*:2]; Indazole3carbonyl(1-CH2COOH) = O=C(O)Cn1nc(C(=O)*)c2ccccc21; Bip(4'-COOH) = N[C@@H](Cc1ccc(-c2ccc(C(=O)O)cc2)cc1)C(=O)O; Bip(4'-NHAc) = CC(=O)Nc1ccc(-c2ccc(C[C@H](N)C(=O)O)cc2)cc1; Indole3carbonyl(1-CH2COOH) = O=C(O)Cn1cc(C(=O)*)c2ccccc21; X58 = N=C(NCCC[C@@H](N[*:1])C(=O)[*:2])NCCc1cccc(N)c1; Ala(morpholin-4-yl) = N[C@@H](CN1CCOCC1)C(=O)O; Phe(3-CONH2) = NC(=O)c1cccc(C[C@H](N)C(=O)O)c1; Bip = N[C@@H](Cc1ccc(-c2ccccc2)cc1)C(=O)O; Phe(2-Me) = Cc1ccccc1C[C@H](N)C(=O)O; Tiq1c(1S) = O=C(O)[C@H]1NCCc2ccccc21; Tic = O=C(O)[C@@H]1Cc2ccccc2CN1; Cha = N[C@@H](CC1CCCCC1)C(=O)O; ξP = O=C(O)C1CCCN1; Sar = CNCC(=O)O
Molecular target: TNFα (Homo sapiens, UniProt P01375)
Sequence (P01375 77-233 limits assumed): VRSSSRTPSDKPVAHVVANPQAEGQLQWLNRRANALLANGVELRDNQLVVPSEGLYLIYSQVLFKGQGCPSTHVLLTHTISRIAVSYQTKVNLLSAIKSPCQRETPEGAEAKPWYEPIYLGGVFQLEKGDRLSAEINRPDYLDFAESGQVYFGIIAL
Assay: TNF-Induced HEK-Blue Assay
Type: cell-based
[1] = HEK-Blue-CD40L cells, NF-kB-driven secreted alkaline phosphatase reporter, TNFα 0.5 ng/ml, 18 h, read-out: TNF induced HEK-Blue assay IC50 value

SMILES	pIC50 [1]	pIC50
CC(C)C[C@@H]1NC(=O)[C@H](CCCNC(=N)N)NC(=O)[C@H](C(C)C)NC(=O)C2CCCN2C(=O)[C@H](C(C)C)NC(=O)[C@@H](CCCNC(=N)NCCc2cccc(N)c2)NC(=O)[C@H](CC(=O)O)NC(=O)[C@@H]2CCCN2C(=O)CN(C)C(=O)[C@H](Cc2ccc(-c3ccc(NC(=O)c4nn(CC(=O)O)c5ccccc45)cc3)cc2)NC(=O)[C@H](Cc2ccc(-c3ccccc3)cc2)NC(=O)[C@H](CN2CCOCC2)NC(=O)CSC[C@@H](C(=O)NCC(N)=O)NC1=O (stereo partly drawn) [Example 405] ({CH2CO}-[Ala(morpholin-4-yl)][Bip][Bip(4'-NH)](Indazole3carbonyl(1-CH2COOH))[Sar]PD[X58]V[ξP]VRLCG-NH2; thioether N-13)	–	6.70 to 7.30
CC(C)C[C@@H]1NC(=O)[C@H](Cc2cccc(C(N)=O)c2)NC(=O)[C@H](C(C)C)NC(=O)[C@@H]2CCCN2C(=O)[C@H](C(C)C)NC(=O)[C@@H](CCCNC(=N)NC[C@H](O)CO)NC(=O)[C@H](CC(=O)O)NC(=O)[C@H](Cc2ccc(O)cc2)NC(=O)CN(C)C(=O)[C@H](Cc2ccc(-c3ccc(NC(=O)c4cn(CC(=O)O)c5ccccc45)cc3)cc2)NC(=O)[C@H](Cc2ccc(-c3ccccc3)cc2)NC(=O)[C@H](CN2CCOCC2)NC(=O)CSC[C@@H](C(=O)NCC(N)=O)NC1=O [Example 547] ({CH2CO}-[Ala(morpholin-4-yl)][Bip][Bip(4'-NH)](Indole3carbonyl(1-CH2COOH))[Sar]YD[dArg(ω-(2S)-2,3-diOHpropyl)]VPV[Phe(3-CONH2)]LCG-NH2; thioether N-13)	–	> 7.30
CC[C@H](C)[C@@H]1NC(=O)[C@@H](CCCNC(=N)N)NC(=O)[C@H](CC(=O)O)NC(=O)[C@H](Cc2cnc[nH]2)NC(=O)CN(C)C(=O)[C@H](Cc2ccc(-c3ccc(NC(=O)c4ccccc4)cc3)cc2)NC(=O)[C@H](Cc2ccc(-c3ccc(C(=O)O)cc3)cc2)NC(=O)[C@H](CC2CCCCC2)NC(=O)CSC[C@@H](C(=O)NCC(N)=O)NC(=O)[C@H](CC(C)C)NC(=O)[C@H](Cc2cnc[nH]2)NC(=O)[C@H](C(C)C)NC(=O)[C@@H]2Cc3ccccc3CN2C1=O [Example 370] ({CH2CO}-[Cha][Bip(4'-COOH)][Bip(4'-NHBz)][Sar]HD[dR]I[Tic]VHLCG-NH2; thioether N-13)	–	> 7.30

The next lines start with results.

pIC50 [1]	SMILES	pIC50
6.70 to 7.30	CC(=O)Nc1ccc(-c2ccc(C[C@@H]3NC(=O)[C@H](Cc4ccc(-c5ccc(C(=O)O)cc5)cc4)NC(=O)[C@H](CC4CCCCC4)NC(=O)CSC[C@@H](C(=O)NCC(N)=O)NC(=O)[C@H](CC(C)C)NC(=O)[C@H](Cc4ccccc4C)NC(=O)[C@H](C(C)C)NC(=O)[C@@H]4CCCN4C(=O)[C@H](C(C)C)NC(=O)[C@@H](CCCNC(=N)N)NC(=O)[C@H](CC(=O)O)NC(=O)[C@@H]4CCCN4C(=O)CN(C)C3=O)cc2)cc1 [Example 255] ({CH2CO}-[Cha][Bip(4'-COOH)][Bip(4'-NHAc)][Sar]PD[dR]VPV[Phe(2-Me)]LCG-NH2; thioether N-13)	–
6.70 to 7.30	CC[C@H](C)[C@@H]1NC(=O)[C@@H](CCCNC(=N)N)NC(=O)[C@H](CC(=O)O)NC(=O)[C@@H]2c3ccccc3CCN2C(=O)CN(C)C(=O)[C@H](Cc2ccc(-c3ccc(NC(C)=O)cc3)cc2)NC(=O)[C@H](Cc2ccc(-c3ccc(C(=O)O)cc3)cc2)NC(=O)[C@H](CC2CCCCC2)NC(=O)CSC[C@@H](C(=O)NCC(N)=O)NC(=O)[C@H](CC(C)C)NC(=O)[C@H](Cc2ccc(O)cc2)NC(=O)[C@H](C(C)C)NC(=O)[C@@H]2CCCN2C1=O [Example 279] ({CH2CO}-[Cha][Bip(4'-COOH)][Bip(4'-NHAc)][Sar][Tiq1c(1S)]D[dR]IPVYLCG-NH2; thioether N-13)	–
> 7.30	CC(C)C[C@@H]1NC(=O)[C@H](Cc2ccc(O)cc2)NC(=O)[C@H](C(C)C)NC(=O)[C@@H]2CCCN2C(=O)[C@H](C(C)C)NC(=O)[C@@H](CCCNC(=N)N)NC(=O)[C@H](CC(=O)O)NC(=O)[C@H](Cc2ccc(O)cc2)NC(=O)CN(C)C(=O)[C@H](Cc2ccc(-c3ccccc3)cc2)NC(=O)[C@H](Cc2ccc(-c3ccccc3)cc2)NC(=O)[C@H](CN2CCOCC2)NC(=O)CSC[C@@H](C(=O)NCC(N)=O)NC1=O [Example 68] ({CH2CO}-[Ala(morpholin-4-yl)][Bip][Bip][Sar]YD[dR]VPVYLCG-NH2; thioether N-13)	–

Source: patent publication US20250145665A1, “MACROCYCLIC PEPTIDES USEFUL AS MODULATORS OF TNF ALPHA” (Bristol-Myers Squibb Company, priority 2023, published 2025)
